Earlier results as cited in patent publication US10688072B2, “Misoprostol dispersible tablet” (Azanta Danmark A/S, priority 2014, dated 2020).
Like-named read-outs stand apart in the source and are kept apart here.

Details: 400 μg

Peak in plasma concentration (oral administration compared with vaginal): larger peak than vaginal administration
Inter-subject variability in % at peak concentration (oral route compared with vaginal): smaller than for vaginal application
SMILES: CCCCC(C)(O)C/C=C/[C@H]1[C@H](O)CC(=O)[C@@H]1CCCCCCC(=O)OC (mixture of isomers) [misoprostol]
Peak in plasma concentration (sublingual administration compared with oral and vaginal): larger peak in plasma concentration of misoprostol than oral and vaginal
Inter-subject variability in % at peak concentration (sublingual route compared with oral and vaginal): smaller following the sublingual route of administration than for oral and vaginal application
